These results are taken from patent USRE39198E1, “Heteroarylpiperidines, pyrrolidines and piperazines and their use as antipsychotics and analgesics” (Aventis Pharmaceuticals Inc., priority 1989, dated 2006).

Tested on in the first data set: not given
Test: not given
Conditions: not given
In general, melting point refers to the temperature, or range, at which the solid turns liquid. Turning to `Cl.O=C1[C@H]2CCCC[C@H]2C(=O)N1CCCN1CCC(c2noc3cc(F)ccc23)CC1`, the melting point fell in the range of 242 to 245 °C. In turn, `COc1cc(C(C)=O)ccc1OCCCN1CCC(c2nsc3ccccc23)CC1` [Example 10, 1-[4-[3-[4-(1,2-Benzisothiazol-3-yl)-1-piperidinyl]-propoxy]-3-methoxyphenyl]ethanone] showed a melting point of 93 to 96 °C. In the case of `COc1cc(C(C)=O)ccc1OC/C=C/CN1CCC(c2noc3cc(F)ccc23)CC1` [Example 81, (E)-1-[4-[[4-[4-(6-Fluoro-1,2-benzisoxazol-3-yl)-1-piperidinyl]-2-butenyl]oxy]-3-methoxyphenyl]ethanone], the melting point lay within 91 to 93 °C.

`COc1ccc(NC(C)=O)cc1OCCCN1CCC(c2nsc3cc(F)ccc23)CC1` [Example 74, N-[3-[3-[4-(6-Fluoro-1,2-benzisothiazol-3-yl)-1-piperidinyl]propoxy]-4-methoxyphenyl]acetamide] gave a melting point of 109 to 111 °C. Compound `CC(=O)Nc1ccccc1OCCCN1CCC(c2noc3cc(F)ccc23)CC1` [Example 61, N-[2-[3-[4-(6-fluoro-1,2-benzoisoxazol-3-yl)-1-piperidinyl]propoxy]phenyl]acetamide] displayed a melting point of 118 to 120 °C. `OCCCN1CCC(c2noc3cc(F)ccc23)CC1` [6-Fluoro-3-[1-(3-hydroxypropyl)-4-piperidinyl]-1,2-benzisoxazole] displayed a melting point of 140 to 142 °C. As for `CC(=O)NCCN1CCC(c2noc3cc(F)ccc23)CC1.O=C(O)/C=C/C(=O)O`, the melting point lay within 132 to 133 °C. Still for that read-out and setting: the figure for `CCc1ccc(OCCCN2CCC(c3noc4cc(F)ccc34)CC2)cc1OC.Cl` is 150 to 152 °C. Compound `CCOC(=O)CCN1CCC(c2noc3cc(F)ccc23)CC1.O=C(O)/C=C/C(=O)O` had a melting point of 135 to 136 °C. Take `CC(=O)OCCN1CCC(c2noc3cc(F)ccc23)CC1.O=C(O)/C=C/C(=O)O`: the melting point was 154 to 155 °C. `COc1cc(C(C)=O)ccc1OCCCCN1CCN(c2n[nH]c3cc(Cl)ccc23)CC1` [Example 36, 1-[4-[4-[4-(6-Chloro-1H-indazol-3-yl)-1-piperazinyl]butoxy]-3-methoxyphenyl]ethanone] registered a melting point of 189 to 191 °C. `CC(=O)c1ccc(NCCCN2CCC(c3noc4cc(F)ccc34)CC2)c(O)c1` [Example 111, 1-[4-[3-[4-(6-Fluoro-1,2-benzisoxazol-3-yl)-1-piperidinyl]propylamino]-3-hydroxyphenyl]ethanone] displayed a melting point of 150 to 152 °C. In turn, `Fc1ccc2c(C3CCN(CCN4CCOCC4)CC3)noc2c1` [Example 116, N-[2-[4-(6-Fluoro-1,2-benzisoxazol-3-yl)-1-piperidinyl]ethyl]morpholine] had a melting point of 131 to 132 °C. Compound `COc1cc(C(C)=O)ccc1OCCCN1CCN(c2n[nH]c3cc(F)ccc23)CC1` [Example 12, 1-[4-[3-[4-(6-Fluoro-1H-indazol-3-yl)-1-piperazinyl]-propoxy]-3-methoxyphenyl]ethanone] registered a melting point of 135 to 137 °C. In the case of `CC(=O)OCCNCCN1CCC(c2noc3cc(F)ccc23)CC1.O=C(O)/C=C/C(=O)O`, the melting point was in the range of 116 to 118 °C. `CC(=O)OC[C@H](C)CN1CCC(c2noc3cc(F)ccc23)CC1.O=C(O)/C=C/C(=O)O` registered a melting point of 118 to 120 °C. `Cc1ccc2c(c1)C(=O)N(CCN1CCC(c3noc4cc(F)ccc34)CC1)C2=O` [Example 157, N-[2-[4-(6-Fluoro-1,2-benzisoxazol-3-yl)-1-piperidinyl]ethyl]-4-methylphthalimide]: the melting point fell in the range of 138 to 140 °C. `Cl.O=C1[C@H]2CCCC[C@H]2C(=O)N1CCCCN1CCC(c2noc3cc(F)ccc23)CC1` returned a melting point of 229 to 231 °C. `COc1cc(C(C)O)ccc1OCCCN1CCC(c2nsc3cc(F)ccc23)CC1` (stereo not drawn) [Example 145, 4-[3-[4-(6-Fluoro-1,2-benzisothiazol-3-yl)-1-piperidinyl]propoxy]-3-methoxy-alpha-methylbenzenemethanol] showed a melting point of 113 to 115 °C. On to `Cl.Cl.NCCCN1CCC(c2noc3cc(F)ccc23)CC1` [1-(3-Aminopropyl)-4-(6-fluoro-1,2-benzisoxazol-3-yl)-piperidine dihydrochloride], for which the melting point is 231 to 234 °C. For the compound `O=C1c2c(Cl)ccc(Cl)c2C(=O)N1CCN1CCC(c2noc3cc(F)ccc23)CC1` [Example 153, N-[2-[4-(6-Fluoro-1,2-benzisoxazol-3-yl)-1-piperidinyl]ethyl]-3,6-dichlorophthalimide], the melting point fell in the range of 163 to 164 °C. `COc1cc(C(C)=O)ccc1OC/C=C\CN1CCC(c2noc3cc(F)ccc23)CC1` [(Z)-1-[4-[[4-[4-(6-Fluoro-1,2-benzisoxazol-3-yl)-1-piperidinyl]-2-butenyl]oxy]-3-methoxyphenyl]ethanone] displayed a melting point of 57 to 59 °C. Turning to `CC(=O)OCCCCN1CCC(c2noc3cc(F)ccc23)CC1.O=C(O)/C=C/C(=O)O`, the melting point fell in the range of 142 to 143 °C.

`COc1cc(C(C)=O)ccc1OCCCCN1CCC(c2n[nH]c3ccccc23)CC1` [Example 20, 1-[4-[4-[4(1H-indazol-3-yl)-1-piperidinyl]butoxy]-3-methoxyphenyl]ethanone] registered a melting point of 133 to 135 °C.

In turn, `C[C@@H](CO)CN1CCC(c2noc3cc(F)ccc23)CC1.O=C(O)/C=C/C(=O)O` yielded a melting point of 114 to 115 °C. Still for that read-out and setting: the figure for `COC(C)c1ccc(OCCCN2CCC(c3noc4cc(F)ccc34)CC2)c(O)c1` (centres unmarked) [Example 139, 3-[1-[3-[4-(1-Methoxyethyl)-2-hydroxyphenoxyl]propyl]-4-piperidinyl]-6-fluoro-1,2-benzisoxazole] is 98 to 100 °C; for `Cl.Cl.NCCCCN1CCC(c2noc3cc(F)ccc23)CC1` it is 234 to 237 °C; for `CC(=O)c1ccc(OCc2ccccc2)c(OC/C=C/CN2CCC(c3noc4cc(F)ccc34)CC2)c1` [Example 85, (E)-1-[3-[[4-[4-(6-Fluoro-1,2-benzisoxazol-3-yl)-1-piperidinyl]-2-butenyl]oxy]-4-benzyloxyphenyl]ethanone] it is 124 to 125 °C. On to `O=C1c2ccccc2C(=O)N1CCCCN1CCC(c2noc3cc(F)ccc23)CC1` [Example 98, N-[4-[4-(6-Fluoro-1,2-benzisoxazol-3-yl)-1-piperidinyl]butyl]phthalimide], for which the melting point fell in the range of 144 to 146 °C. For the compound `CCCCCCCCCC(=O)OCCCCN1CCC(c2noc3cc(F)ccc23)CC1.O=C(O)/C=C/C(=O)O` [4-[4-(6-Fluoro-1,2-benzisoxazol-3-yl)-1-piperidinyl]butyl decanoate fumarate], the melting point lay in the range of 109 to 110 °C. The compound `COc1cc(C(C)=O)ccc1OCCCN1CCC(c2n[nH]c3cc(F)ccc23)CC1` [Example 28, 1-[4-[3-[4-(6-Fluoro-1H-indazol-3-yl)-1-piperidinyl]-propoxy]-3-methoxyphenyl]ethanone] displayed a melting point of 202 to 204 °C. In turn, `O=C1c2cc(Cl)c(Cl)cc2C(=O)N1CCN1CCC(c2noc3cc(F)ccc23)CC1` [Example 151, N-[2-[4-(6-Fluoro-1,2-benzisoxazol-3-yl)-1-piperidinyl]ethyl]-4,5-dichlorophthalimide] came in with a melting point of 132 to 134 °C. On to `CC(C)(CO)CN1CCC(c2noc3cc(F)ccc23)CC1.O=C(O)/C=C/C(=O)O`, for which the melting point was 144 to 145 °C.

`O=C(O)/C=C/C(=O)O.OCCCCN1CCC(c2noc3cc(F)ccc23)CC1` returned a melting point of 131 to 132 °C. On the same count and under the same terms, the figure for `COc1cc(C(C)O)ccc1OCCCCN1CCC(c2noc3ccccc23)CC1` (centres unmarked) [1-[4-[4-[4-(1,2-Benzisoxazol-3-yl)-1-piperidinyl]butoxy]-3-methoxyphenyl]ethanol] is 99 to 101 °C; for `CC(C)(O)CCN1CCC(c2noc3cc(F)ccc23)CC1.O=C(O)/C=C/C(=O)O` it is 156 to 158 °C.

Another data set concerns CK-1 male mice. Description: Climbing mouse assay (apomorphine-induced climbing). The format is in vivo. Particulars: Mus musculus; ip; apomorphine 1.5 mg/kg sc challenge; climbing score vs control group set to 100%; linear regression. On the procedure: Antipsychotic activity is determined in the climbing mice assay by a method similar to those described by P. Protais, et al., Psychopharmacol., 50:1 (1976) and B. Costall, Eur. J. Pharmacol., 50:39 (1978).
Subject […] male mice (23-27 grams) are group-housed under standard laboratory conditions. The mice are individually placed in wire mesh stick cages (4″×10″) and are allowed one hour for adaption and exploration of the new environment. Then apomorphine is injected subcutaneously at 1.5 mg/kg a dose causing climbing in all subjects for 30 minutes.
For evaluation of climbing, 3 readings are taken at 10. 20, and 30 minutes after apomorphine administration according to the following scale:
Mice consistently climbing before the injection of apomorphine are discarded.
With full-developed apomorphine climbing, the animals are hanging on to the cage walls, rather motionless, over long periods of time. By contrast, climbs due to mere motor stimulation usually only last a few seconds.
The climbing scores are individually totaled (maximal score: 6 per mouse over 3readings) and the total score of the control group (vehicle intraperitoneally-apomorphine subcutaneously) is set to 100%.
By ED50 is commonly meant the midpoint of the dose-response relation. A low value points to an effect at a small dose. `COc1cc(C(C)O)ccc1OCCCCN1CCC(c2noc3ccccc23)CC1` (centres unmarked) [1-[4-[4-[4-(1,2-Benzisoxazol-3-yl)-1-piperidinyl]butoxy]-3-methoxyphenyl]ethanol]: the 50% effect level (ED50) was put at a dose of 1.6 mg/kg.

The data set is the same for the next values; noted with them: apomorphine 1.5 mg/kg sc challenge, climbing score vs control group set to 100%, linear regression.
Consider “6-Fluoro-3-[1-[3-[(isoquinol-5-yl)oxy]propyl]-4-piperidinyl]-1,2-benzisoxazole sesquifumarate”, for which the “CLIMBING MOUSE ASSAY (ED50 mg/kg, ip)” value was 0.172 mg/kg. Turning to `COc1cc(C(C)=O)ccc1OCCCCN1CCC(c2noc3cc(F)ccc23)CC1` [1-[4-[4-[4-(6-Fluoro-1,2-benzisoxazol-3-yl)-1-piperidinyl)butoxy]-3-methoxyohenylethanone], the “CLIMBING MOUSE ASSAY (ED50 mg/kg, ip)” value stood at 0.68 mg/kg.

Regarding `CC(=O)c1ccc(CCCCN2CCC(c3noc4cc(F)ccc34)CC2)cc1` [1-[4-(4′-Acetophenyl)butyl]-4-(6-fluoro-1,2-benzisoxazol-3-yl)piperidine], the “CLIMBING MOUSE ASSAY (ED50 mg/kg, ip)” value was found to be 0.34 mg/kg.

Turning to `Fc1ccc2c(C3CCN(CCC4COc5ccccc5O4)CC3)noc2c1` (centres unmarked) [2-[4-(6-Fluoro-1,2-benzisoxazol-3-yl)-1-piperidinyl]ethyl]-1,4-benzodioxan], the “CLIMBING MOUSE ASSAY (ED50 mg/kg, ip)” value turned out to be 0.29 mg/kg.
